In test [1] the test system is Trypanosoma brucei rhodesiense. Kind of test: Antitrypanosomal activity against Trypanosoma brucei rhodesiense after 72 hrs by Alamar blue assay. Type of test: functional, organism-based. A general note: Alamar Blue is a resazurin reagent that responds to reducing activity.
Test [2] addresses T1, Enoyl-acyl-carrier protein reductase (Plasmodium falciparum, UniProt Q965D5).
T1 sequence (Q965D5 whole entry): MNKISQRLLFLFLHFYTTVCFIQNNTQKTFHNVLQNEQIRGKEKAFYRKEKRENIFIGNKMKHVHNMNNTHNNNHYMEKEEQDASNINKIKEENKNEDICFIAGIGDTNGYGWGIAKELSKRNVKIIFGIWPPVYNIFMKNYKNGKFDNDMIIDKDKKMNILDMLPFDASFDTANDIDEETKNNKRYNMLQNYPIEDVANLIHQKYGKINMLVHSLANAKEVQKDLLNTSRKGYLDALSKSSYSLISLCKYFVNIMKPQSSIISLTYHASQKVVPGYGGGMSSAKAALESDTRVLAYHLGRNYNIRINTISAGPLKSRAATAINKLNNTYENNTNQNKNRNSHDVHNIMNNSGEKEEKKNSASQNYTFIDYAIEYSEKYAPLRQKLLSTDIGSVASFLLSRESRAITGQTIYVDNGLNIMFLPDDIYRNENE
Put plainly: Inhibition of Plasmodium falciparum FabI.

The next test concerns Plasmodium falciparum. Put plainly: Antimalarial activity against chloroquine-resistant, pyrimethamine-resistant Plasmodium falciparum K1 after 48 hrs. Type of test: functional, organism-based. The following applies: K1, 48 h.
The test system of another test is Trypanosoma cruzi. Kind of test: Antitrypanosomal activity against Trypanosoma cruzi after 72 hrs. It counts as functional, organism-based.
A further test has as its system Leishmania donovani. Kind of test: Antileishmanial activity against Leishmania donovani after 72 hrs by Alamar blue assay. It counts as functional, organism-based.
The test system of another test is L6. Put plainly: Cytotoxicity against rat L6 cells after 72 hrs. It counts as cell-based. The following applies: L6, 72 h.
Test [3] deals with T1, Enoyl-acyl-carrier protein reductase. Put plainly: Inhibition of Plasmodium falciparum FabI in presence of variable crotonyl-coA level.
Test [4] has the same target. Put plainly: Inhibition of Plasmodium falciparum FabI in presence of variable NADH levels.

Here are results for twelve molecules from ChEMBL document CHEMBL1139805, “Marine natural products from the Turkish sponge Agelas oroides that inhibit the enoyl reductases from Plasmodium falciparum, Mycobacterium tuberculosis and Escherichia coli” (Bioorg Med Chem, 2007).

In brackets after ≈: the same amount, converted by molar mass.

In general, IC50 refers to the point on the concentration scale where inhibition reaches its midpoint. Higher therefore signals weaker potency in that assay. As usually defined, the Ki is the equilibrium dissociation constant of an inhibitor or competing ligand from its target.

For `Nc1nc(N)nc(Nc2ccc([As]3SCC(CO)S3)cc2)n1` (centres undefined) [MELARSOPROL], the IC50 in test [1] is 0.0027 µg/mL.
Take `NCCS(=O)(=O)O` [TAURINE]: the IC50 is over 799 µM in test [2]; over 50 µg/mL in the test with Plasmodium falciparum; 83.4 µg/mL (≈ 666 µM) in test [1]; over 30 µg/mL in the test with Trypanosoma cruzi; over 30 µg/mL in the test with Leishmania donovani; over 90 µg/mL in the test on L6.
Take `Nc1ncc(/C=C/CNC(=O)c2cc(Br)c(Br)[nH]2)[nH]1.O=C(O)C(F)(F)F` [OROIDIN TFA SALT]: the IC50 in test [2] is 9.94 µM; in the test with Plasmodium falciparum, 7.9 µg/mL; in test [1], 12.2 µg/mL; with Trypanosoma cruzi, over 30 µg/mL; in the test on Leishmania donovani it was 15.4 µg/mL; in the test with L6, 76.4 µg/mL.
Turning to `COC(=O)c1cc(Br)c(Br)[nH]1`, the IC50 in test [2] is over 353 µM; with Plasmodium falciparum, over 50 µg/mL; in test [1], 13.3 µg/mL (≈ 47 µM); in the test on Trypanosoma cruzi, over 30 µg/mL; in the test on Leishmania donovani, over 30 µg/mL; in the test with L6, over 90 µg/mL.
As for `O=C(O)C(F)(F)F.O=C(O)c1cc(Br)c(Br)[nH]1`, the IC50 was 104 µM in test [2]; 49.9 µg/mL with Plasmodium falciparum; 25.2 µg/mL in test [1]; over 30 µg/mL in the test with Trypanosoma cruzi; 5.8 µg/mL with Leishmania donovani; over 90 µg/mL in the test on L6.
As to `CC[C@@H](CC[C@@H](C)[C@H]1CC[C@H]2C3=CC[C@H]4C[C@@H](O)CC[C@]4(C)[C@H]3CC[C@]12C)C(C)C`, the IC50 was 43.4 µM in test [2]; 16.1 µg/mL (≈ 38.8 µM) in the test with Plasmodium falciparum; 14.2 µg/mL (≈ 34.2 µM) in test [1]; over 30 µg/mL in the test with Trypanosoma cruzi; 29.5 µg/mL (≈ 71.1 µM) in the test on Leishmania donovani; over 90 µg/mL in the test with L6.
For `COc1cc([C@@H]2c3cc4c(cc3[C@H](O)[C@H]3COC(=O)[C@H]23)OCO4)cc(OC)c1OC` [PODOFILOX], the IC50 in the test on L6 was 0.009 µg/mL (≈ 0.0217 µM).
On to `Nc1ncc(/C=C/CNC(=O)c2cc(Br)c(Br)[nH]2)[nH]1` [OROIDIN], for which the IC50 in test [2] is 0.771 µM; with Plasmodium falciparum, 3.9 µg/mL (≈ 10 µM); in test [1] it was 17.3 µg/mL (≈ 44.5 µM); in the test with Trypanosoma cruzi, over 30 µg/mL; in the test on Leishmania donovani it was over 30 µg/mL; in the test on L6, 88.6 µg/mL (≈ 228 µM). Besides, the Ki is 0.4 µM in test [3] and 0.8 µM in test [4].
`Oc1cc(Cl)ccc1Oc1ccc(Cl)cc1Cl` [TRICLOSAN]: half-maximal inhibition in test [2] (IC50) required 0.0484 µM.
As to `O=C(O)c1cc(Br)c(Br)[nH]1`, the IC50 is over 372 µM in test [2]; over 50 µg/mL in the test on Plasmodium falciparum; 20.9 µg/mL (≈ 77.7 µM) in test [1]; over 30 µg/mL in the test with Trypanosoma cruzi; 7.9 µg/mL (≈ 29.4 µM) with Leishmania donovani; over 90 µg/mL in the test with L6.
Regarding `NC/C=C/c1cnc(N)[nH]1`, the IC50 is over 724 µM in test [2]; 7.4 µg/mL (≈ 53.6 µM) with Plasmodium falciparum; 2.4 µg/mL (≈ 17.4 µM) in test [1]; 2.5 µg/mL (≈ 18.1 µM) in the test on Trypanosoma cruzi; 13.1 µg/mL (≈ 94.8 µM) with Leishmania donovani; 0.7 µg/mL (≈ 5.07 µM) with L6.
`O=C(Cn1ccnc1[N+](=O)[O-])NCc1ccccc1` [BENZNIDAZOLE] registered an IC50 in the test on Trypanosoma cruzi of 0.17 µg/mL (≈ 0.653 µM).
